The values below come from patent US9199981B2 (NOVARTIS AG, priority 2011, dated 2015).

In this assay the target is c-kit (Homo sapiens (Human), UniProt P10721). Put plainly: Mo7e cell proliferation assay (SCF dependent proliferation). Type of assay: cell-based. As to conditions: Mo7e cells stimulated with human recombinant SCF, 48 hours. The protocol:
Compounds of Formula (I) and Formula (II) provided herein were assayed to measure their capacity to inhibit c-kit and PDGFR kinases using the appropriate assay described below: c-Kit inhibition was evaluated using the Mo7e cell proliferation assay, and PDGFR inhibition was evaluated using the Rat A10 cell proliferation assay and the Human TG/HA-VSMC cell proliferation assay.
Mo7e Cell Proliferation Assay
The compounds of Table 1 and Table 2 were tested for inhibition of SCF dependent proliferation using human Mo7e cells which endogenously express c-kit in a 384 well format. […] After 48 hours of incubation at 37° C., cell viability was measured by adding 25 uL of CellTiter Glo (Promega) to the cells and the luminescence was measured by a CLIPR CCD camera (Molecular Devices).
The IC50 value is given as that concentration of the test compound in question that provoke a response halfway between the baseline and maximum responses.

Broadly, the IC50 is the concentration that gives 50% inhibition.

c-kit, sequence (P10721 26-976): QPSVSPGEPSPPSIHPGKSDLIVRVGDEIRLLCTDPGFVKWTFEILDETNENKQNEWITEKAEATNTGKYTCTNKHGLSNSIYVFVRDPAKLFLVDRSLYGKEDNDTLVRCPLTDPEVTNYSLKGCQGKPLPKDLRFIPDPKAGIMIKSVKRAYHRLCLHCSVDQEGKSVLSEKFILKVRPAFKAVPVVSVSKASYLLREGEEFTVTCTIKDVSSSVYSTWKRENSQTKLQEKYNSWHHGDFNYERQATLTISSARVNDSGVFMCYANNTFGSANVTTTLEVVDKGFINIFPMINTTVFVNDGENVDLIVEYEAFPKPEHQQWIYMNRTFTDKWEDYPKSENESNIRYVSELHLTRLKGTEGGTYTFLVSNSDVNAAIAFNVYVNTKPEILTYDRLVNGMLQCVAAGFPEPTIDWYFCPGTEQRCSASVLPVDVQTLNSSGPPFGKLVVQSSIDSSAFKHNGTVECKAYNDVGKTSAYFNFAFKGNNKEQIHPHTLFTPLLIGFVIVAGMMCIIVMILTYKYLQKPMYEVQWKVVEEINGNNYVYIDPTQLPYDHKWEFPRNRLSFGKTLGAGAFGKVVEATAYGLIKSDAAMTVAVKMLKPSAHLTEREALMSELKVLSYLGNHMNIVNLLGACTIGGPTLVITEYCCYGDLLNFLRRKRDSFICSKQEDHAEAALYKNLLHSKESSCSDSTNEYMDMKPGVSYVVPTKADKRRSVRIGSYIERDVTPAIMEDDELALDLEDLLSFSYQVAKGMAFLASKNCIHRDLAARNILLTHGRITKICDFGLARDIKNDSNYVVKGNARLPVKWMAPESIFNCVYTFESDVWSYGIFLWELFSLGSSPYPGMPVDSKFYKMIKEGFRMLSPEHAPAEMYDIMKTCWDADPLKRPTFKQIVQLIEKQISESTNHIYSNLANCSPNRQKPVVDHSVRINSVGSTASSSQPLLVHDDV

`Cc1ccc(-c2noc(CC3CC3)n2)cc1NC(=O)c1cnc2ccccn12` [F105]: the IC50 (1% FBS) came out at 40 nM.

Consider `Cc1ccn2c(C(=O)Nc3cc(-c4noc([C@H]5C[C@@H]5F)n4)ccc3C)cnc2c1` [F106], for which the IC50 (1% FBS) is 52 nM.

Take `Cc1ccn2c(C(=O)Nc3cc(-c4noc([C@@H]5C[C@H]5F)n4)ccc3C)cnc2c1` [F107]: where the note is “1% FBS”, the IC50 stood at 85 nM.

Turning to `Cc1ccc(-c2noc([C@H]3C[C@@H]3F)n2)cc1NC(=O)c1cnc2ccccn12` [F110, N-(5-(5-((1R,2S)-2-fluorocyclopropyl)-1,2,4-oxadiazol-3-yl)-2-methylphenyl)imidazo[1,2-a]pyridine-3-carboxamide], under “1% FBS”, the IC50 amounted to 58 nM.

As for `Cc1ccn2c(C(=O)Nc3cc(-c4noc(C5CC(F)C5)n4)ccc3C)cnc2c1` (stereo not shown) [F111], the IC50 (1% FBS) is 46 nM.

With `Cc1ccc2ncc(C(=O)Nc3cc(-c4noc(C5CC(F)C5)n4)ccc3C)n2c1` (stereo not shown) [F112], for the setting “1% FBS”, the IC50 stood at 56 nM.

For the molecule `Cc1ccc(-c2noc([C@@H]3C[C@H]3F)n2)cc1NC(=O)c1cnc2ccccn12` [F113, N-(5-(5-((1S,2R)-2-fluorocyclopropyl)-1,2,4-oxadiazol-3-yl)-2-methylphenyl)imidazo[1,2-a]pyridine-3-carboxamide], the IC50 (1% FBS) is 56 nM.

On to `Cc1ccc(-c2nc(C3CC3)no2)cc1NC(=O)c1cnc2ccccn12` [F114], for which, under “20% FBS (values marked *)”, the IC50 amounted to 322 nM.

As to `Cc1ccc(-c2noc(C3CC(C)(O)C3)n2)cc1NC(=O)c1cnc2ccccn12` (stereo not shown) [F116], where the note is “20% FBS (values marked *)”, the IC50 turned out to be 182 nM.

`CO/N=C1/CCC(c2nc(-c3ccc(C)c(NC(=O)c4cnc5ccccn45)c3)no2)C1` (stereo not shown) [F117]: the IC50 (1% FBS) was 203 nM.

For `Cc1ccc(-c2noc(C3(C(F)(F)F)CC3)n2)cc1NC(=O)c1cnc2ccccn12` [F119], the IC50 (1% FBS) was found to be 162 nM.

With `Cc1ccc(-c2noc(C3CC(=O)C3)n2)cc1NC(=O)c1cnc2ccccn12` [F121], under “1% FBS”, the IC50 is 140 nM.

On to `Cc1ccc(-c2noc([C@H]3C[C@@H](N4CCCCC4)C3)n2)cc1NC(=O)c1cnc2ccccn12` [F123], for which the IC50 (1% FBS) came to 345 nM.

On to `Cc1ccc(-c2noc([C@H]3C[C@@H](N4CCOCC4)C3)n2)cc1NC(=O)c1cnc2ccccn12` [F124], for which the IC50 (1% FBS) was found to be 257 nM.

Take `Cc1ccc(-c2noc([C@H]3C[C@@H](N4CCN(C)CC4)C3)n2)cc1NC(=O)c1cnc2ccccn12` [F125]: the IC50 (1% FBS) turned out to be 393 nM.

Take `Cc1ccc(-c2noc(C3CC(=NOCCN4CCOCC4)C3)n2)cc1NC(=O)c1cnc2ccccn12` (stereo not shown) [F126]: the IC50 (1% FBS) is 213 nM.

Turning to `Cc1ccc(-c2noc([C@H]3C[C@H](NC(=O)OC(C)(C)C)C3)n2)cc1NC(=O)c1cnc2ccccn12` [F127], the IC50 (1% FBS) was determined as 353 nM.

Turning to `Cc1ccc(-c2noc([C@H]3C[C@H](NS(C)(=O)=O)C3)n2)cc1NC(=O)c1cnc2ccccn12` [F129], for the setting “1% FBS”, the concentration for half-maximal inhibition (IC50) is 143 nM.

As to `Cc1ccc(-c2noc(C3(N)CC3)n2)cc1NC(=O)c1cnc2ccccn12` [F131], where the note is “1% FBS”, the IC50 stood at 311 nM.

Consider `COCC(=O)NC1(c2nc(-c3ccc(C)c(NC(=O)c4cnc5ccccn45)c3)no2)CC1` [F132], for which, under “1% FBS”, the IC50 turned out to be 554 nM.

As for `COCCN[C@H]1C[C@@H](c2nc(-c3ccc(C)c(NC(=O)c4cnc5ccccn45)c3)no2)C1` [F133], for the setting “1% FBS”, the IC50 was determined as 451 nM.

For `O=C(Nc1cc(-c2noc(C3CC(F)(F)C3)n2)ccc1F)c1cnc2ccccn12` [F134], the IC50 (1% FBS) amounted to 144 nM.

Consider `COC1(C(F)(F)F)CC(c2nc(-c3ccc(C)c(N(C)C(=O)c4cnc5ccccn45)c3)no2)C1` (stereo not shown) [F135], for which the IC50 (1% FBS) amounted to 999 nM.

On to `Cc1ccc(-c2noc(C3(NC(=O)OC(C)(C)C)CCC3)n2)cc1NC(=O)c1cnc2ccccn12` [F136], for which the IC50 (1% FBS) came to 171 nM.

For the molecule `Cc1ccc(-c2noc(C3(N)CCC3)n2)cc1NC(=O)c1cnc2ccccn12` [F137], the IC50 (1% FBS) was found to be 197 nM.

For the molecule `C=C1CC(c2nc(-c3ccc(F)c(NC(=O)c4cnc5ccccn45)c3)no2)C1` [F138], for the setting “1% FBS”, the IC50 amounted to 103 nM.

`Cc1ccc(-c2noc(C3(CO)CC3)n2)cc1NC(=O)c1cnc2ccccn12` [F139]: the IC50 (1% FBS) came out at 137 nM.

As to `Cc1ccc(-c2noc(CNC(=O)C3CC3(F)F)n2)cc1NC(=O)c1cnc2ccccn12` (stereo not shown) [F140], the IC50 (1% FBS) stood at 132 nM.

As for `Cc1ccc(-c2noc(CNC(=O)OC3(C)CC3)n2)cc1NC(=O)c1cnc2cc(C(F)(F)F)ccn12` [F141], the IC50 (1% FBS) is 391 nM.

As to `COC(=O)NC1CC(c2nc(-c3ccc(C)c(NC(=O)c4cnc5ccccn45)c3)no2)C1` (stereo not shown) [F142], where the note is “1% FBS”, the IC50 is 148 nM.

Take `Cc1ccc(-c2noc(C3CC(F)(F)C3)n2)cc1NC(=O)c1cnc2ccc(CCC(=O)OC(C)(C)C)cn12` [F143]: the 50% inhibitory concentration (IC50) (1% FBS) stood at 237 nM.

In the case of `Cc1ccc(-c2noc(C3CC(F)(F)C3)n2)cc1NC(=O)c1cnc2ccc(CN3CCN(C)CC3)cn12` [F144], the IC50 (1% FBS) was 249 nM.

As to `Cc1ccc(-c2noc(C3CC(F)(F)C3)n2)cc1NC(=O)c1cnc2ccc(CN3CCN(CCO)CC3)cn12` [F145], the half-inhibitory concentration (IC50) (1% FBS) worked out at 238 nM.

For `COCCOCc1ccc2ncc(C(=O)Nc3cc(-c4noc(C5CC(F)(F)C5)n4)ccc3C)n2c1` [F146], where the note is “1% FBS”, the IC50 is 105 nM.

Regarding `Cc1ccc(-c2noc(C3CC(F)(F)C3)n2)cc1NC(=O)c1cnc2ccc(-c3cnn(CC(=O)O)c3)cn12` [F147], the IC50 (1% FBS) amounted to 351 nM.

With `Cc1ccc(-c2noc(C3(O)CC3)n2)cc1NC(=O)c1cnc2ccccn12` [F148], the IC50 (1% FBS) was determined as 305 nM.

For `Cc1ccc(-c2noc(C3CC(F)(F)C3)n2)cc1NC(=O)c1cnc2cc(OC(F)F)ccn12` [F149], the IC50 (1% FBS) is 378 nM.

For `Cc1ccc(-c2noc(C3CC(n4cncn4)C3)n2)cc1NC(=O)c1cnc2ccccn12` (stereo not shown) [F150], the IC50 (1% FBS) was 167 nM.

For the molecule `Cc1ccc(-c2noc([C@H]3C[C@@H](O)C3)n2)cc1NC(=O)c1cnc2ccc(F)cn12` [F151], the IC50 (1% FBS) was 181 nM.

With `O=C(Nc1cc(-c2noc(C3CCC3)n2)ccc1F)c1cnc2ccccn12` [F152], for the setting “1% FBS”, the IC50 is 151 nM.

Consider `Cc1ccc(-c2noc(C3CC(F)(F)C3)n2)cc1NC(=O)c1cnc2ccc(CC(C)(C)O)cn12` [F153], for which the IC50 (1% FBS) was 165 nM.

`Cc1ccc(-c2noc(C3CC(F)(F)C3)n2)cc1NC(=O)c1cnc2ccc(CN3CCOC3=O)cn12` [F154]: the IC50 (1% FBS) turned out to be 365 nM.

Take `Cc1ccc(-c2noc(C3CC(F)(F)C3)n2)cc1NC(=O)c1cnc2cc(CC(C)(C)O)ccn12` [F155]: where the note is “1% FBS”, the IC50 is 390 nM.

`CC1(C)CC(c2nc(-c3ccc(F)c(NC(=O)c4cnc5ccccn45)c3)no2)C1` [F156]: the IC50 (1% FBS) stood at 125 nM.

Turning to `Cc1ccc(-c2noc([C@H]3C[C@@](C)(O)C3)n2)cc1NC(=O)c1cnc2ccc(F)cn12` [F158], the IC50 (1% FBS) was found to be 175 nM.

Consider `Cc1ccc(-c2noc(C3CC3O)n2)cc1NC(=O)c1cnc2ccccn12` (stereo not shown) [F159], for which, under “1% FBS”, the IC50 amounted to 218 nM.

Take `Cc1ccc(-c2noc(C3CC(F)(F)C3)n2)c(C)c1NC(=O)c1cnc2ccccn12` [F160]: for the setting “1% FBS”, the IC50 came out at 293 nM.

With `Cc1ccc(-c2noc(C3CC(F)(F)C3)n2)cc1NC(=O)c1cnc2ccc(-n3cncc3C)cn12` [F163], under “1% FBS”, the IC50 was 139 nM.

Regarding `COCCOCc1ccc2ncc(C(=O)Nc3cc(-c4noc(C5CC(F)(F)C5)n4)ccc3C)n2c1` [F164], the IC50 (1% FBS) is 101 nM.

Regarding `Cc1ccn2c(C(=O)Nc3cc(-c4noc(C5CC5(F)F)n4)ccc3C)cnc2c1` (stereo not shown) [F165], the IC50 (1% FBS) stood at 107 nM.

As to `Cc1ccc(-c2noc(C3(F)CCC3)n2)cc1NC(=O)c1cnc2ccccn12` [F166], the IC50 (1% FBS) was determined as 111 nM.

Take `Cc1ccc(-c2noc(C3(O)CCC3)n2)cc1NC(=O)c1cnc2ccccn12` [F167]: the IC50 (1% FBS) is 144 nM.
